From ChEMBL document CHEMBL3351755, “Elements and modulation of functional dynamics” (J Med Chem, 2014)

Columns and labels:
[1] = Binding affinity to mouse major urinary protein by NMR analysis
[2] = Binding affinity to Escherichia coli glucose/galactose binding protein by NMR analysis
[3] = Binding affinity to quail siderocalin Q83 by NMR analysis; set-up: species or system Galliformes
[4] = Binding affinity to oxalocrotonate tautomerase (unknown origin) by NMR analysis
[5] = biological target: T1, 6-phosphogluconolactonase (Trypanosoma brucei, UniProt Q9GRG6); experiment: Binding affinity to Trypanosoma brucei 6-phospho-gluconalactonase by NMR analysis
T1 sequence (Q9GRG6 whole entry): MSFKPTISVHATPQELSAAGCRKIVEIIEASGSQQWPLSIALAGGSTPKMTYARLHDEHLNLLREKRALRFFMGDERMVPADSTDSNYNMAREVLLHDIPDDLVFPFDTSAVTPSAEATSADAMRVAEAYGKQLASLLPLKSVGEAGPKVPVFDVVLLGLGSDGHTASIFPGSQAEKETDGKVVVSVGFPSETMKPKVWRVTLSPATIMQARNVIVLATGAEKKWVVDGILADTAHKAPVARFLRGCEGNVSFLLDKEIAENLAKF

[6] = Binding affinity to ketosteroid isomerase (unknown origin) by NMR analysis
Galectin-3 = Galectin-3 (Homo sapiens, UniProt P17931); experiment: Binding affinity to galectin-3 (unknown origin)
Sequence of Galectin-3 (P17931 whole entry): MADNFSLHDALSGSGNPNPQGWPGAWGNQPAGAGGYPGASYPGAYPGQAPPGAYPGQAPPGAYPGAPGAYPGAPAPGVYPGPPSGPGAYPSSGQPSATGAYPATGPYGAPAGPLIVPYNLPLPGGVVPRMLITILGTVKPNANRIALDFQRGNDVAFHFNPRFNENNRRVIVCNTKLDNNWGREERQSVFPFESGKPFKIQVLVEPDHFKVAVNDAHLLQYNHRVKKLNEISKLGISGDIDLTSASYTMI

[7] = Binding affinity to Escherichia coli ribose binding protein by NMR analysis
[8] = Binding affinity to hen egg-white lysozyme by NMR analysis; set-up: species or system Gallus gallus
[9] = biological target: T2, Thiopurine S-methyltransferase (Homo sapiens, UniProt P51580); experiment: Binding affinity to thiopurine methyltransferase (unknown origin) by NMR analysis
T2 sequence (P51580 whole entry): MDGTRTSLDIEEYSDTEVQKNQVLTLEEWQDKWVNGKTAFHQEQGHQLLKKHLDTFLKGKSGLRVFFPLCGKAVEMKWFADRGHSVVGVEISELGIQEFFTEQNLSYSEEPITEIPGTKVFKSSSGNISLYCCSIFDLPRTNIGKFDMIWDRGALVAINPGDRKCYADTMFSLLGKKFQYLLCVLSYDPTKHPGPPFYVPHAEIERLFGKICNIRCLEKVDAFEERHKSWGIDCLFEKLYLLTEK

`COc1nccnc1CC(C)C` gave a Kd [1] of 0.3 µM.

In the case of `c1ccc(Nc2cccc3ccccc23)cc1`, the Kd [1] is reported as 0.032 µM.

`OC[C@H]1OC(O)[C@H](O)[C@@H](O)[C@@H]1O` (stereo partly drawn) [DEXTROSE] gave a Kd [2] of 0.29 µM.

With `O=C(N[C@H]1COC(=O)[C@@H](NC(=O)c2cccc(O)c2O)COC(=O)[C@@H](NC(=O)c2cccc(O)c2O)COC1=O)c1cccc(O)c1O` [ENTEROBACTIN] the Kd [3] was 0.0005 µM.

For `CC1(C)SCN(C(=O)[C@@H](CS)Cc2ccccc2)[C@H]1C(=O)O`, the Kd [4] was 590 µM.

`O=C(O)[C@H](O)[C@@H](O)[C@H](O)[C@H](O)COP(=O)(O)O` gave a Kd [5] of 10 µM.

Work on `C[C@]12CC[C@H]3[C@@H](CCC4=CC(=O)CC[C@@H]43)[C@@H]1CC[C@@H]2O` yielded a Kd [6] of 5.5 µM.

Compound `CC(=O)N[C@H]1C(O)O[C@H](CO)[C@@H](O[C@@H]2O[C@H](CO)[C@H](O)[C@H](NC(=O)c3ccccc3)[C@H]2O)[C@@H]1O` (stereo partly drawn) has a Kd (Galectin-3) of 18.2 µM.

For `O[C@@H]1[C@H](O)[C@H](O)CO[C@H]1O` [RIBOSE (PYRANOSE)], the Kd [7] was 0.17 µM.

`N[C@H]1[C@H](O[C@H]2[C@H](O)[C@@H](N)[C@H](O[C@H]3[C@H](O)[C@@H](N)C(O)O[C@@H]3CO)O[C@@H]2CO)O[C@H](CO)[C@@H](O)[C@@H]1O` (stereo partly drawn) showed a Kd [8] of 14 µM.

`COc1c(F)c(F)c(C(=O)N[C@H]2[C@@H](O)[C@@H](CO)O[C@@H](O[C@H]3[C@H](O)[C@@H](NC(C)=O)C(O)O[C@@H]3CO)[C@@H]2O)c(F)c1F` (stereo partly drawn) showed a Kd (Galectin-3) of 3.3 µM.

Work on `CCC(C)C1=NCCS1` (stereo not drawn) yielded a Kd [1] of 0.9 µM.

With `Nc1ncnc2c1ncn2[C@@H]1O[C@H](C[C@@H](N)CC[C@H](N)C(=O)O)[C@@H](O)[C@H]1O` [SINEFUNGIN] the Kd [9] was 10 µM.
